According to ChEMBL document CHEMBL1151240, “A new dimension to the biosynthetic products isolated from the sponge Negombata magnifica” (2004):
Activity calls are given as the source filed them. No cut-off for these calls is given here.

Test system: A10
Experiment: Disruption of actin cytoskeleton in rat A10 cells upto 10 ug/ml by rhodamine-phalloidin assay
Format: functional

Structure (SMILES) | Activity
CO[C@]1([C@@H]2CSC(=O)N2)C[C@H]2C[C@@H](CC[C@H](C)/C=C\CC/C(C)=C\C(=O)O2)O1 | inactive
C/C1=C/C(=O)O[C@@H]2C[C@@H](CC[C@H](C)/C=C\CC1)O[C@@](O)([C@@H]1CSC(=O)N1)C2 [LATRUNCULIN B] | 0.5 µg/mL
C/C(=C/C(=O)O)CC/C=C\[C@@H](C)CC[C@@H]1CC=CC(=O)O1 | inactive
C/C1=C/C(=O)O[C@@H]2C[C@@H](CC[C@H](C)/C=C\C=C\CC1)O[C@@](O)([C@@H]1CSC(=O)N1)C2 [LATRUNCULIN A] | 0.5 µg/mL
C/C1=C/C(=O)O[C@@H]2C[C@@H](CC[C@H](C)/C=C\CC1)O[C@@](O)([C@H]1CSC(=O)N1)C2 [16-EPI-LATRUNCULIN B] | 5 µg/mL
